Measurements reported in patent US10294212B2 (CURADEV PHARMA PRIVATE LTD., priority 2013, dated 2019).
Where two headings read alike, the source gives them in different places.

Experiments:
[1] = target: Human indoleamine 2,3-dioxygenase-2 (hIDO2) (Homo sapiens (Human), UniProt Q6ZQW0); experiment: In-vitro IDO2 enzyme assay; format: biochemical
Description: Human indoleamine 2,3-dioxygenase-2 (hIDO2) catalyzes the oxidative cleavage of the pyrrole ring of the indole nucleus of tryptophan to yield N-formylkynurenine which can be converted to kynurenine (KYN) by deformylation. hIDO2 with an C-terminal His tag (Sino Biological Inc (China)) was expressed in E. coli cells and the protein was purified using standard methods well known in the art. Unless otherwise stated, all materials were procured from Sigma Aldrich, Mo., USA.
The assay monitoring the conversion of L-tryptophan to KYN was carried out as follows. hIDO2 (160 nM) was incubated with tryptophan (5000 04) in the presence of ascorbic acid (20 mM), methylene blue (10 04) and catalase (100 μg/mL) in potassium phosphate buffer (100 mM; pH 7.5) at 37 degrees C. for 30 min. The reaction was terminated with 30% trichloroacetic acid (TCA) and further incubated at 65 degrees C. for 15 min to fully convert N-formylkynurenine to KYN. The reaction mixture was then centrifuged to remove sediments, and the KYN in the supernatant was measured by UV-visible absorption spectroscopy at 360 nm using a Waters HPLC system fitted with a C-18 column or by LC/MS/MS (C. J. D Austin et. Al, Amino Acid 2009, 565-578).
Percent inhibition at each concentration of test compounds was determined by determining the decrease in KYN with reference to the reaction control with 1% DMSO vehicle. Data were analyzed using nonlinear regression to generate IC50 values using Graph Pad Prism® 5. Compounds 2 and 184 were tested as described above.

CT-26 tumor cells = experiment: Antitumor activity in syngeneic CT26/Balb/C tumor model; format: in vivo, Balb/c mice; details: for reduction of tumor growth: vs control animals
Method: Tumor volume reduction by the test compounds was evaluated in a syngeneic CT26/Balb/C tumor model as described below. Balb/c mice were purchased from Vivo Bio Tech, Hyderabad, India, and housed in sterile conditions using an individually ventilated caging system manufactured by Citizen Industries Limited, Ahmedabad, India. Mice were quarantined for at least 7 days before experimentation.
Mouse colorectal tumor forming cells, CT-26 cells (ATCC, USA), were cultured in DMEM and 10% FBS medium supplemented with lx non-essential amino acid (HiMedia) in an incubator maintained at 37QC with 95% humidity and 5% CO2. One million (1×10^6) live syngeneic CT-26 cells suspended in 0.2 ml of […] were injected subcutaneously in the right flank of each Balb/c mouse (age 6-8 weeks, weight: about 18-20 g) on day 1 under anesthesia. Eight to ten mice were used per experimental group. Subcutaneous cells formed localized tumors. Animals were visually inspected twice a day. Tumor measurements were initiated 7 days post injection using Vernier calipers. Tumor sizes at day 7 ranged typically from 80-150 mm^3. Tumor dimensions were subsequently measured every 3 to 4 days and tumor volume was determined. Assuming tumors to be ellipsoid, tumor volume was calculated using the formula: V=(D×d×d)/2
Where D is longest diameter in mm, and d is shortest diameter in mm.
When the average tumor volume in the mice reached 100-120 mm^3, tumor bearing mice were randomized for treatment with either test compound or vehicle alone. Test compounds were formulated generally in normal saline comprising Polyethylene Glycol (PEG400), Propylene glycol (PG) and Dimethyl Acetamide (DACM) at pH 4.5-5.0 and dosed orally at ranges 40-75 mg/kg (dose volume—5 mL/kg) twice a day. Solutions of the compounds were prepared immediately before dosing the animals. In general, tumor volume was measured at various times post-dosing from day 1 to day 34.
A non-limiting example is provided. Tumor bearing mice were dosed orally twice a day at 40 mg/kg body weight with either vehicle control or test compound 2 formulated in 30% Polyethylene Glycol (PEG-400), 20% Propylene glycol (PG) in normal saline. Tumors were measured and tumor volumes were determined at 1, 4, 6, 9, 11, and 14 days after the first dose as described above. Animals were sacrificed on day 14. Tumor and blood samples were harvested for further analysis. Just prior to animal sacrifice, blood was drawn retro-orbitally into a tube containing 0.2% EDTA for plasma collection. The harvested tumors were weighed and snap frozen in liquid nitrogen immediately. Plasma KYN concentrations are measured for pharmacokinetic analysis using LC/MS/MS using an API4000 mass spectrometer (Applied Biosystems) coupled to a Shimadzu Prominence LC system fitted with a C18 column.

[2] = system: plasma and tumor tissue KYN; experiment: Tumor penetration: KYN levels in tumor and plasma, CT26/Balb/C tumor model; format: in vivo, Balb/c mice; details: 50 mg/kg oral BID 4 days, vs vehicle; for plasma KYN levels reduced: 2 hours post-dosing
Method: i. Tumor penetration in mice: Tumor penetration of test compounds and KYN levels in tumor and plasma of treated animals were determined in a syngeneic CT26/Balb/C tumor model. Briefly, three to four tumor bearing Balb/c mice (tumor size=150-200 mm^3) were dosed twice a day orally for 4 days with test compound (for e.g., compound 2) at 50 mg/kg formulated in carboxymethyl cellulose (CMC). A vehicle control was included along with the test compounds. Blood samples were collected by retro-orbital bleed or terminal cardiac bleed into tubes containing heparin just before the final dose and at two hours after the final dose. Animals were sacrificed two hours post-final dose. Tumors were harvested and weighed immediately. Tumors were then snap frozen in liquid nitrogen, pulverized and dissolved in homogenization buffer (chilled acetonitrile/water/formic acid (10:90:0.1 v/v/v) to extract test compounds and kynurenine, KYN.
Plasma and tumor tissue KYN levels were reduced in test compound treated animals compared to control vehicle-treated animals (TABLE 7). For example, compounds 2 and 97 each reduced tumor KYN levels by 81%. At 2 hours post-dosing, the plasma KYN levels were reduced by 62% and 67% respectively in the animals treated with compound 2 or 97 compared to the control animals dosed with vehicle alone. The concentration of test compounds in the tumor tissue extracts is determined by LC/MS/MS using an API 4000 or AP15500 Qtrap mass spectrometer.

[3] = IDO2 Enzyme assay, read-out: IC50 values IDO2
[4] = IDO2 enzyme assay, read-out: IDO2 IC50

Chain of Human indoleamine 2,3-dioxygenase-2 (hIDO2) (Q6ZQW0 whole entry): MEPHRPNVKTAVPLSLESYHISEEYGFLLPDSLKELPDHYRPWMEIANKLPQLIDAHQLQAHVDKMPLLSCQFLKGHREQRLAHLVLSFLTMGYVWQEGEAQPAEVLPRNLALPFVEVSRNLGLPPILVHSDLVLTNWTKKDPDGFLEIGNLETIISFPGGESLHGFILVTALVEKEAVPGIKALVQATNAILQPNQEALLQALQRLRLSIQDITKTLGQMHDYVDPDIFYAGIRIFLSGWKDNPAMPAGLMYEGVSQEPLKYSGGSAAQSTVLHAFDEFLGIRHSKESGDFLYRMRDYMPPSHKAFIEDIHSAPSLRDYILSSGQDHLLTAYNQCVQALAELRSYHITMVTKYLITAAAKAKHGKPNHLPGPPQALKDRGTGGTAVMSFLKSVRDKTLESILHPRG

| IC50 [1, 3] [nM] | IC50 [1, 4] [nM] | Structure (SMILES) | tumor growth (CT-26 tumor cells; 40 mg/kg oral BID, over 14 days, vs vehicle) | tumor KYN levels reduced [2] [%] | plasma KYN levels reduced [2] [%] | reduction of tumor growth (CT-26 tumor cells; 75 mg/kg oral BID) | reduction of tumor growth (CT-26 tumor cells; 50 mg/kg oral BID) |
| --- | --- | --- | --- | --- | --- | --- | --- |
| < 1000 | < 1000 | Nc1oc2cnccc2c1Nc1ccc(F)c(Cl)c1 [Compound 2, N^3-(3-Chloro-4-fluoro-phenyl)-furo[2,3-c]pyridine-2,3-diamine] | significantly decreased tumor growth | 81 | 62 |  |  |
|  |  | Nc1oc2c(-c3ccncc3)nccc2c1Nc1ccc(F)c(Cl)c1 [Compound 97, N^3-(3-Chloro-4-fluorophenyl)-7-(pyridin-4-yl)furo[2,3-c]pyridine-2,3-diamine] |  | 81 | 67 | 26%-38 |  |
| < 1000 | < 1000 | Nc1oc2c(-c3ccncc3)nccc2c1Nc1ccc(F)c(F)c1 [Compound 184, N^3-(3,4-difluorophenyl)-7-(pyridin-4-yl)furo[2,3-c]pyridine-2,3-diamine] |  |  |  |  | 26%-38 |
